Reference: US20260007758A1, “SO[…]-2 RECEPTOR (SST2R) NON-PEPTIDE DRUG CONJUGATES AND USES THEREOF” (Crinetics Pharmaceuticals, Inc., priority 2024, published 2026)

Assays:
Type in all cases: cell-based
[1] = molecular target: T1, human somatostatin receptor subtype 2 (Homo sapiens, UniProt P30874); test: Functional assay for SSTR2 agonists (HTRF cAMP); settings: CHO-K1 cells stably expressing human SST2; NKH477-stimulated cAMP; 20 min at 37 C; read-out: hSST2 cAMP Avg EC50
T1 construct: expressed in transfected cells
T1 sequence (P30874 whole entry): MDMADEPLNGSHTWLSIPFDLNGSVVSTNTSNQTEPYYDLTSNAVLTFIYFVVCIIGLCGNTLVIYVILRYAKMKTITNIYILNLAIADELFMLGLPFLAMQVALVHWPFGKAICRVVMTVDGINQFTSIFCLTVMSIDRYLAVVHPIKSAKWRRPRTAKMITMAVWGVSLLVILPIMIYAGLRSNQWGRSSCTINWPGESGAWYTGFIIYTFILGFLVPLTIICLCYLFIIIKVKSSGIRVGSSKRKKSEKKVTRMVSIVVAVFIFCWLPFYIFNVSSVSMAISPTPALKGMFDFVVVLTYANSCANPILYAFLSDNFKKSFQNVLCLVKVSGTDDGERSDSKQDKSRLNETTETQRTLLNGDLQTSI
From the text: General overview: All five SSTR subtypes are Gi coupled G-protein coupled receptors (GPCRs) that lead to decreases in intracellular cyclic AMP (cAMP) when activated by an agonist. Therefore, measurement of intracellular cAMP levels can be used to assess whether compounds of the invention are agonists of SSTR subtypes (John Kelly, Troy Stevens, W. Joseph Thompson, and Roland Seifert, Current Protocols in Pharmacology. 2005, 2.2.1-2.2). One example of an intracellular cAMP assay is described below.
Four days prior to the assay, 2,000 Chinese hamster ovary cells (CHO-K1, ATCC #CCL-61) stably expressing the human somatostatin receptor subtype 2 are plated in each well of a 96-well tissue culture-treated plate in Ham's F12 growth media (ThermoFisher #10-080-CM) supplemented with 10% donor bovine serum (Gemini Bio-Products #100-506), 100 U/mL penicillin; 100 ug/mL streptomycin, 2 mM L-glutamine (Gemini Bio-Products #400-110) and 0.2 mg/mL hygromycin B (GoldBio #31282-04-9). The cells are cultured at 37° C., 5% CO2 and 95% humidity. cAMP is measured with HTRF dynamic cAMP assay (Cisbio. #62AM5PEJ) per manufacturer's instructions. […] The cells are incubated for 20 minutes at 37° C. (the final concentration of the compounds of the invention are typically 0-10,000 nM). The cells are treated with 50 μL of lysis buffer (HRTF cAMP kit, Cisbio) and incubated at room temperature for 30 minutes with rotary shaking at 600 rpm, and then diluted with 150 μL of stimulation buffer and shaken for an additional five minutes at 300 rpm. The lysate is transferred to 384-well plates and incubated for 1-24 hours at room temperature, and cAMP accumulation is detected by d2-labeled cAMP and Anti-cAMP-Cryptate. The time-resolved fluorescent signal is read using a m1000 Pro (Tecan) or CLARIOStar (BMG Labtech) microplate reader, where the samples are excited with light at 340 nm and emission light is measured at 620 nm and 665 nm. The data is expressed as a calculation of the fluorescence ratio (665 nm/620 nm). The intracellular cAMP concentrations are calculated by regression to a standard curve and are plotted vs, the concentration of the compounds of the invention. The EC50 of the compounds are calculated using standard methods. All data manipulations are in GraphPad Prism v9 (GraphPad, San Diego, CA).

SST2 = molecular target: T2, SST2 (Homo sapiens, UniProt P30874); test: PathHunter CHO-K1 SST2 Internalization Assay; settings: PathHunter CHO-K1 SST2 cells; 90 min at 37 C; luminescence; read-out: Internalization EC50
T2 construct: host or cells: PathHunter CHO-K1 SST2 cells
T2 sequence (P30874 whole entry): as above
Experimental: NDCs of the present invention were assessed in vitro using the human PathHunter CHO-K1 SST2 β-arrestin2 and PathHunter CHO-K1 SST2 Internalization Assays from DiscoverX. The CHO-K cells were seeded in 20 μLs of cell culture medium in a white-walled 384 well tissue culture-compatible plate at a density of 2500 cells/well. After a 48-hour incubation, cells were treated with 5 μLs of a 1:3 serially diluted SST2 NDC prepared at 5× concentration with a final top compound concentration of 10 uM for 90 min at 37 C and in 5% CO2. 11 dilutions were tested as well as one treatment that was compound free. After incubation, the media containing treatments were discarded and 20 μL of a working solution of Beta-Glo from Promega Beta-Go Assay System was added to each well. The plate was then incubated for 60 min at room temperature in the dark. Luminescence was measured using a Tecan plate reader. IC50 curves were generated using the nonlinear regression analysis (four-parameters) with GraphPad Prism 9. Results were the average of duplicates and are corrected for background.

[2] = system: NCI-H524 human small cell lung cancer cells; test: H524 assay: inhibition of cell proliferation (CellTiter Glo); settings: 2 h treatment, washout, additional 70 h incubation
Experimental: NDCs of the present invention were assessed in an in vitro assay evaluating the inhibition of cell proliferation. NCI-H524 (ATCC) human small cell lung cancer cells were plated in 96-well V-bottom plates (Costar) at a concentration of 5,000 cells/well. 24 h later, the cells were treated for 2 h with a NDC. NDC starting dose was 1 uM and two-fold serial dilutions were done for a total of 11 points. After 2 h of treatment, cells were spun down, and the drug-containing media was removed, and fresh complete media was added and used to resuspend the cells, which were spun again. After removal of the media, the cells were resuspended in complete medium and incubated for an additional 70 h. Cell proliferation was assessed using the CellTiter Glo Assay according to the standard protocol (Promega). Luminescence was measured using a TECAN plate reader. Percent proliferation inhibition was calculated using the following formula: % inhibition=(Luminescence Control−Luminescence Treatment)/Luminescence Control*100. IC50 curves were generated using the nonlinear regression analysis (four-parameter) with GraphPad Prism 9.

CC[C@H](C)[C@@H]([C@@H](CC(=O)N1CCC[C@H]1[C@H](OC)[C@@H](C)C(=O)N[C@H](C)[C@@H](O)c1ccccc1)OC)N(C)C(=O)[C@@H](NC(=O)[C@H](C(C)C)N(C)C(=O)OCc1ccc(NC(=O)[C@H](CCCNC(N)=O)NC(=O)[C@@H](NC(=O)C[C@@H](N)C(=O)NCCOCCC(=O)NCCNc2ncc(-c3cc(C)cc(F)c3)c(N3CCC(N)CC3)c2-c2nc3ccc(Cl)cc3[nH]2)C(C)C)cc1C(=O)N1CC(C(=O)O)C1)C(C)C [Compound 73]
EC50 [1]: 0.06 nM
EC50 (SST2): 3.1 nM
EC50 [2]: 110 nM

CC[C@H](C)[C@@H]([C@@H](CC(=O)N1CCC[C@H]1[C@H](OC)[C@@H](C)C(=O)N[C@H](C)[C@@H](O)c1ccccc1)OC)N(C)C(=O)[C@@H](NC(=O)[C@H](C(C)C)N(C)C(=O)OCc1ccc(NC(=O)[C@H](CCCNC(N)=O)NC(=O)[C@@H](NC(=O)c2cc(C(=O)NCC(=O)O)cc(N(C)CCOCCOCCOCCOCCC(=O)NCCNc3ncc(-c4cc(C)cc(F)c4)c(N4CCC(N)CC4)c3-c3nc4ccc(Cl)cc4[nH]3)c2)C(C)C)cc1)C(C)C [Compound 159]
EC50 [1]: 1.2 nM
EC50 (SST2): 23 nM
EC50 [2]: 130 nM

CC[C@H](C)[C@@H]([C@@H](CC(=O)N1CCC[C@H]1[C@H](OC)[C@@H](C)C(=O)N[C@H](C)[C@@H](O)c1ccccc1)OC)N(C)C(=O)[C@@H](NC(=O)[C@H](C(C)C)N(C)C(=O)OCc1ccc(NC(=O)[C@H](CCCNC(N)=O)NC(=O)[C@@H](NC(=O)C2(C(=O)NCCOCCC(=O)NCCNc3ncc(-c4cc(C)cc(F)c4)c(N4CCC(N)CC4)c3-c3nc4ccc(Cl)cc4[nH]3)CCC2)C(C)C)cc1C(=O)NCCN)C(C)C [Compound 81]
EC50 [1]: 0.094 nM
EC50 (SST2): 10 nM
EC50 [2]: 2 nM

CC[C@H](C)[C@@H]([C@@H](CC(=O)N1CCC[C@H]1[C@H](OC)[C@@H](C)C(=O)N[C@H](C)[C@@H](O)c1ccccc1)OC)N(C)C(=O)[C@@H](NC(=O)[C@H](C(C)C)N(C)C(=O)OCc1ccc(NC(=O)[C@H](C)NC(=O)[C@@H](NC(=O)CCOCCC(=O)NCCNc2ncc(-c3cc(C)cc(F)c3)c(N3CCC(N)CC3)c2-c2nc3cc(F)cc(OC)c3[nH]2)C(C)C)c(O[C@@H]2O[C@H](C(=O)O)[C@@H](O)[C@H](O)[C@H]2O)c1)C(C)C [Compound 140]
EC50 [1]: 0.15 nM
EC50 (SST2): 2.9 nM
EC50 [2]: 6.6 nM

CC[C@H](C)[C@@H]([C@@H](CC(=O)N1CCC[C@H]1[C@H](OC)[C@@H](C)C(=O)N[C@H](C)[C@@H](O)c1ccccc1)OC)N(C)C(=O)[C@@H](NC(=O)[C@H](C(C)C)N(C)C(=O)OCc1ccc(NC(=O)[C@H](C)NC(=O)[C@@H](NC(=O)CCOCCC(=O)N(C)CC(=O)NCCNc2ncc(-c3cc(C)cc(F)c3)c(N3CCC(N)CC3)c2-c2nc3ccc(Cl)cc3[nH]2)C(C)C)c(O[C@@H]2O[C@H](C(=O)NCC(=O)O)[C@@H](O)[C@H](O)[C@H]2O)c1)C(C)C [Compound 42]
EC50 [1]: 0.1 nM
EC50 (SST2): 3.8 nM
EC50 [2]: 25 nM

CC[C@H](C)[C@@H]([C@@H](CC(=O)N1CCC[C@H]1[C@H](OC)[C@@H](C)C(=O)N[C@H](C)[C@@H](O)c1ccccc1)OC)N(C)C(=O)[C@@H](NC(=O)[C@H](C(C)C)N(C)C(=O)OCc1ccc(NC(=O)[C@H](CCCNC(N)=O)NC(=O)[C@@H](NC(=O)c2cc(NCCOCCC(=O)NCCNc3ncc(-c4cc(C)cc(F)c4)c(N4CCC(N)CC4)c3-c3nc4ccc(Cl)cc4[nH]3)cc(C(=O)NCC(N)=O)c2)C(C)C)cc1)C(C)C [Compound 186]
EC50 [1]: 0.26 nM
EC50 (SST2): 2.7 nM
EC50 [2]: 470 nM

CC[C@H](C)[C@@H]([C@@H](CC(=O)N1CCC[C@H]1[C@H](OC)[C@@H](C)C(=O)N[C@H](C)[C@@H](O)c1ccccc1)OC)N(C)C(=O)[C@@H](NC(=O)[C@H](C(C)C)N(C)C(=O)OCc1ccc(NC(=O)[C@H](CCCNC(N)=O)NC(=O)[C@@H](NC(=O)c2cc(NCCOCCC(=O)NCCNc3ncc(-c4cc(C)cc(F)c4)c(N4CCC(N)CC4)c3-c3nc4cc(F)cc(OC)c4[nH]3)cc(C(=O)NCC(=O)O)c2)C(C)C)cc1)C(C)C [Compound 166]
EC50 [1]: 0.29 nM
EC50 (SST2): 4.5 nM
EC50 [2]: 18 nM

CC[C@H](C)[C@@H]([C@@H](CC(=O)N1CCC[C@H]1[C@H](OC)[C@@H](C)C(=O)N[C@H](C)[C@@H](O)c1ccccc1)OC)N(C)C(=O)[C@@H](NC(=O)[C@H](C(C)C)N(C)C(=O)OCc1ccc(NC(=O)[C@H](CCCNC(N)=O)NC(=O)[C@@H](NS(=O)(=O)C[C@H](C)NC(=O)CCOCCC(=O)NCCNc2ncc(-c3cc(C)cc(F)c3)c(N3CCC(N)CC3)c2-c2nc3ccc(Cl)cc3[nH]2)C(C)C)c(O[C@@H]2O[C@H](C(=O)NCC(=O)O)[C@@H](O)[C@H](O)[C@H]2O)c1)C(C)C [Compound 214]
EC50 [1]: 0.11 nM
EC50 (SST2): 4 nM
EC50 [2]: 8.9 nM

CC[C@H](C)[C@@H]([C@@H](CC(=O)N1CCC[C@H]1[C@H](OC)[C@@H](C)C(=O)N[C@H](C)[C@@H](O)c1ccccc1)OC)N(C)C(=O)[C@@H](NC(=O)[C@H](C(C)C)N(C)C(=O)OCc1ccc(NC(=O)[C@H](C)NC(=O)[C@@H](NC(=O)CCOCCC(=O)NCCNc2ncc(-c3cc(C)cc(F)c3)c(N3CCC(N)CC3)c2-c2nc3ccc(Cl)cc3[nH]2)C(C)C)c(OCC(=O)O)c1)C(C)C [Compound 13]
EC50 [1]: 0.16 nM
EC50 (SST2): 3.2 nM
EC50 [2]: 11 nM

CC[C@H](C)[C@@H]([C@@H](CC(=O)N1CCC[C@H]1[C@H](OC)[C@@H](C)C(=O)N[C@H](C)[C@@H](O)c1ccccc1)OC)N(C)C(=O)[C@@H](NC(=O)[C@H](C(C)C)N(C)C(=O)OCc1ccc(NC(=O)[C@H](CCCNC(N)=O)NC(=O)[C@@H](NC(=O)c2cc(NCCCC(=O)N(C)CC(=O)NCCNc3ncc(-c4cc(C)cc(F)c4)c(N4CCC(N)CC4)c3-c3nc4ccc(Cl)cc4[nH]3)cc(C(=O)NC[C@@H](N)C(=O)O)c2)C(C)C)cc1)C(C)C [Compound 172]
EC50 [1]: 0.33 nM
EC50 (SST2): 6.3 nM
EC50 [2]: 22 nM

CC[C@H](C)[C@@H]([C@@H](CC(=O)N1CCC[C@H]1[C@H](OC)[C@@H](C)C(=O)N[C@H](C)[C@@H](O)c1ccccc1)OC)N(C)C(=O)[C@@H](NC(=O)[C@H](C(C)C)N(C)C(=O)OCc1ccc(NC(=O)[C@H](CCCNC(N)=O)NC(=O)[C@@H](NC(=O)c2cc(NCCCCCC(=O)N(C)CC(=O)NCCNc3ncc(-c4cc(C)cc(F)c4)c(N4CCC(N)CC4)c3-c3nc4ccc(F)cc4[nH]3)cc(C(=O)NCC(=O)O)c2)C(C)C)cc1)C(C)C [Compound 168]
EC50 [1]: 0.17 nM
EC50 (SST2): 5.8 nM
EC50 [2]: 34 nM

CC[C@H](C)[C@@H]([C@@H](CC(=O)N1CCC[C@H]1[C@H](OC)[C@@H](C)C(=O)N[C@H](C)[C@@H](O)c1ccccc1)OC)N(C)C(=O)[C@@H](NC(=O)[C@H](C(C)C)N(C)C(=O)OCc1ccc(NC(=O)[C@H](C)NC(=O)[C@@H](NC(=O)CCOCCC(=O)N(C)CC(=O)NCCNc2ncc(-c3cc(C)cc(F)c3)c(N3CCC(N)CC3)c2-c2nc3ccc(Cl)cc3[nH]2)C(C)C)c(O[C@@H]2O[C@H](C(=O)NCCS(=O)(=O)O)[C@@H](O)[C@H](O)[C@H]2O)c1)C(C)C [Compound 51]
EC50 [1]: 0.092 nM
EC50 (SST2): 4.4 nM
EC50 [2]: 28 nM
